According to patent US20130053357A1, “SKIN IRRITATION SUPPRESSANT AND TRANSDERMAL PREPARATION” (HISAMITSU PHARMACEUTICAL CO., INC., priority 2010, published 2013):
Counter-ions that a name gives are not always drawn. Like-named read-outs stand apart in the source and are kept apart here.

Key:
[1] = test system: human three-dimensional culture epidermal model (LabCyte EPI-MODEL); assay: Suppression by cholesterol of skin irritation mediator production induced by drugs in a human epidermal cell (Experiment 2); assay type: cell-based
Method: (§1) A human three-dimensional epidermal culture model obtained by multilayer-culturing a human normal epidermal cell (LabCyte EPI-MODEL, manufactured by Japan Tissue Engineering Co., Ltd.) was used. LabCyte is a cultured skin cultured in a transwell. For the experiment, LabCyte was used with the transwell.
(§2) The experiment was conducted as below. First, LabCyte was put into a 24-well assay plate. Then, 1 ml of assay medium (Japan Tissue Engineering Co., Ltd.) was added so that it was brought into contact with a bottom surface of the cultured skin in each well of the 24-well assay plate, and was pre-cultured in an incubator with 5% of carbon dioxide concentration at 37° C. for 1 hour.
(§3) The test solutions of each group were added to the cells, the culture solutions incubated for 48 hours were collected, and a production amount of each skin irritation mediator was measured. The skin irritation mediator was measured by using a commercially available ELISA kit (manufactured by R&D Systems, Inc.). A relative production amount of the skin irritation mediator in each test substance was calculated as below, when the production amount of the skin irritation mediator in the PMA Only Group was set to 100.
Cholesterol was used as a test substance. The drugs shown in Table 2 were used as the cutaneous irritants.
Tests were conducted by the following group composition. • Drug Only Group: A group with addition of only the drug dispersed in a vehicle, as a test solution. Concentrations of the drugs are shown in Table 2. • Drug Plus Cholesterol Group: A group with addition of the drug and 1% by mass of cholesterol which were dispersed in a vehicle, as a test solution.
The experiment was conducted while other conditions were set in the same manner as in Experiment 1.

[2] = test system: human three-dimensional culture epidermal model (LabCyte EPI-MODEL); assay: Production of skin irritation mediators induced by PMA in human three-dimensional epidermal culture model (Experiment 1); assay type: cell-based; details: for Relative Production Amount of Skin Irritation Mediator when Production Amount in PMA Only Group is Set to 100: IL-1α / Relative Production Amount of Skin Irritation Mediator when Production Amount in PMA Only Group is Set to 100: IL-6 / Relative Production Amount of Skin Irritation Mediator when Production Amount in PMA Only Group is Set to 100: IL-8 / Relative Production Amount of Skin Irritation Mediator when Production Amount in PMA Only Group is Set to 100: PGE2: 48 hours; for activity at 1 %: Homo sapiens, 48 h
Text: Changes in production amounts of skin irritation mediators by test substances were examined when cutaneous irritants were caused to act on a human three-dimensional culture epidermal model.
as §1
As test substances, there were used cholesterol (manufactured by Wako Pure Chemical Industries, Ltd.), β-sitosterol (manufactured by TAMA BIOCHEMICAL CO., LTD.), α-spinasterol (manufactured by ChromaDex, Inc.), ergosterol (manufactured by Wako Pure Chemical Industries, Ltd.), campesterol (manufactured by TAMA BIOCHEMICAL CO., LTD.), glycyrrhizin (manufactured by Wako Pure Chemical Industries, Ltd.), glycyrrhetinic acid (manufactured by Wako Pure Chemical Industries, Ltd.), ginsenoside (manufactured by Wako Pure Chemical Industries, Ltd.), squalene (manufactured by Wako Pure Chemical Industries, Ltd.), squalane (manufactured by Tokyo Chemical Industry Co., Ltd.) and lanosterol (manufactured by ChromaDex, Inc.), which are candidates of a skin irritation suppressant.
As skin irritants, Phorbol 12-Myristate 13-Acetate (PMA, manufactured by Wako Pure Chemical Industries, Ltd.) was used. In addition, as vehicle, olive oil (manufactured by Wako Pure Chemical Industries, Ltd.) was used.
Experiments were conducted by the following group composition. • PMA Only Group: A group with addition of only 0.00001 mol of PMA dispersed in a vehicle, as a test solution. • Test Substance Group: A group with addition of 0.00001 mol of PMA and the test substance which were dispersed in a vehicle, as a test solution.
as §2
Next, a cell survival rate was measured by the MTT method after causing the test solutions of each group to act. Specifically, 50 μL of the test solution of each group was added to the surface of the LabCyte after preculture, was cultured in the incubator with 5% of carbon dioxide concentration at 37° C. for 48 hours, then was transferred to the assay medium comprising 0.5 mg/ml of MTT reagent, and was cultured in the incubator with 5% of carbon oxide level at 37° C. for 3 hours. Then, LabCyte was immersed in 0.3 ml of an isopropanol solution, and the produced blue-purple formazan was extracted for 2 hours. After extraction, an absorbance at 570 nm was measured by a 96 microplate reader. The cell survival rate was calculated as below.
Cell survival rate (%)=(absorbance of Test Substance Group)/(absorbance of PMA Only Group)×100
Subsequently, a production amount of the skin irritation mediator at a test substance concentration with 80% or more of cell survival rate was measured. As skin irritation mediators, PGE2, IL-1α, IL-6, IL-8 were measured.
as §3
Relative production amount=(production amount of the mediator in Test Substance Group)/(production amount of the mediator in PMA Only Group)×100

[3] = Drug Plus Cholesterol Group: drug 1 × 10^−3 M plus 1% by mass of cholesterol
[4] = Drug Plus Cholesterol Group: drug 2 × 10^−3 M plus 1% by mass of cholesterol
[5] = test substance 1 mass % with PMA in olive oil
[6] = test substance 0.1 mass % with PMA in olive oil
[7] = Drug Plus Cholesterol Group: drug 8 × 10^−5 M plus 1% by mass of cholesterol

Compound: Cc1nc2n(c(=O)c1CCN1CCC(c3noc4cc(F)ccc34)CC1)CCCC2 [Risperidone]
- Relative Production Amount of Skin Irritation Mediator when Production Amount in Drug Only Group is Set to 100: IL-1α [1, 3]: 14
- Relative Production Amount of Skin Irritation Mediator when Production Amount in Drug Only Group is Set to 100: IL-6 [1, 3]: 77
- Relative Production Amount of Skin Irritation Mediator when Production Amount in Drug Only Group is Set to 100: IL-8 [1, 3]: 38
- Relative Production Amount of Skin Irritation Mediator when Production Amount in Drug Only Group is Set to 100: PGE2 [1, 3]: 80

Compound: CN(C)CCC[C@@]1(c2ccc(F)cc2)OCc2cc(C#N)ccc21.O=C(O)C(=O)O [(S)-citalopram Oxalate]
- Relative Production Amount of Skin Irritation Mediator when Production Amount in Drug Only Group is Set to 100: IL-1α [1, 3]: 61
- Relative Production Amount of Skin Irritation Mediator when Production Amount in Drug Only Group is Set to 100: IL-6 [1, 3]: 85
- Relative Production Amount of Skin Irritation Mediator when Production Amount in Drug Only Group is Set to 100: IL-8 [1, 3]: 64
- Relative Production Amount of Skin Irritation Mediator when Production Amount in Drug Only Group is Set to 100: PGE2 [1, 3]: 46

Compound: CN1CCCC1c1cccnc1 (stereo not shown) [Nicotine]
- Relative Production Amount of Skin Irritation Mediator when Production Amount in Drug Only Group is Set to 100: IL-1α [1, 4]: 29
- Relative Production Amount of Skin Irritation Mediator when Production Amount in Drug Only Group is Set to 100: IL-6 [1, 4]: 93
- Relative Production Amount of Skin Irritation Mediator when Production Amount in Drug Only Group is Set to 100: IL-8 [1, 4]: 67
- Relative Production Amount of Skin Irritation Mediator when Production Amount in Drug Only Group is Set to 100: PGE2 [1, 4]: 58

Compound: CC[C@H](CC[C@@H](C)[C@H]1CC[C@H]2[C@@H]3CC=C4C[C@@H](O)CC[C@]4(C)[C@H]3CC[C@]12C)C(C)C [β-sitosterol]
- Effect on skin irritation mediator production by PMA (in words) ([2]; summary of Table 1): exhibited effects of suppressing the skin irritation mediator production by PMA
- Relative Production Amount of Skin Irritation Mediator when Production Amount in PMA Only Group is Set to 100: IL-1α [2, 5]: 101
- Relative Production Amount of Skin Irritation Mediator when Production Amount in PMA Only Group is Set to 100: IL-6 [2, 5]: 100
- Relative Production Amount of Skin Irritation Mediator when Production Amount in PMA Only Group is Set to 100: IL-8 [2, 5]: 34
- Relative Production Amount of Skin Irritation Mediator when Production Amount in PMA Only Group is Set to 100: PGE2 [2, 5]: 44

Compound: CC(C)[C@H](C)CC[C@@H](C)[C@H]1CC[C@H]2[C@@H]3CC=C4C[C@@H](O)CC[C@]4(C)[C@H]3CC[C@]12C [Campesterol, campesterol]
- Effect on skin irritation mediator production by PMA (in words) [2]: exhibited effects of suppressing the skin irritation mediator production by PMA
- activity at 1 % ([2]; read-out: Relative Production Amount of Skin Irritation Mediator when Production Amount in PMA Only Group is Set to 100: IL-1α): 53%
- activity at 1 % ([2]; read-out: Relative Production Amount of Skin Irritation Mediator when Production Amount in PMA Only Group is Set to 100: IL-6): 100%
- activity at 1 % ([2]; read-out: Relative Production Amount of Skin Irritation Mediator when Production Amount in PMA Only Group is Set to 100: IL-8): 106%
- activity at 1 % ([2]; read-out: Relative Production Amount of Skin Irritation Mediator when Production Amount in PMA Only Group is Set to 100: PGE2): 38%

Compound: CC(C)NCC(O)COc1ccc(COCCOC(C)C)cc1 (stereo not shown) [Bisoprolol Fumarate]
- Relative Production Amount of Skin Irritation Mediator when Production Amount in Drug Only Group is Set to 100: IL-1α [1, 3]: 26
- Relative Production Amount of Skin Irritation Mediator when Production Amount in Drug Only Group is Set to 100: IL-6 [1, 3]: 72
- Relative Production Amount of Skin Irritation Mediator when Production Amount in Drug Only Group is Set to 100: IL-8 [1, 3]: 73
- Relative Production Amount of Skin Irritation Mediator when Production Amount in Drug Only Group is Set to 100: PGE2 [1, 3]: 87

Compound: CC[C@H](/C=C/[C@@H](C)[C@H]1CC[C@H]2C3=CC[C@H]4C[C@@H](O)CC[C@]4(C)[C@H]3CC[C@]12C)C(C)C [α-spinasterol]
- Effect on skin irritation mediator production by PMA (in words) ([2]; summary of Table 1): exhibited effects of suppressing the skin irritation mediator production by PMA
- Relative Production Amount of Skin Irritation Mediator when Production Amount in PMA Only Group is Set to 100: IL-1α [2, 6]: 38
- Relative Production Amount of Skin Irritation Mediator when Production Amount in PMA Only Group is Set to 100: IL-6 [2, 6]: 109
- Relative Production Amount of Skin Irritation Mediator when Production Amount in PMA Only Group is Set to 100: IL-8 [2, 6]: 72
- Relative Production Amount of Skin Irritation Mediator when Production Amount in PMA Only Group is Set to 100: PGE2 [2, 6]: 43

Compound: Cc1ccc(O)c([C@H](CCN(C(C)C)C(C)C)c2ccccc2)c1 [Tolterodine Tartrate]
- Relative Production Amount of Skin Irritation Mediator when Production Amount in Drug Only Group is Set to 100: IL-1α [1, 7]: 48
- Relative Production Amount of Skin Irritation Mediator when Production Amount in Drug Only Group is Set to 100: IL-6 [1, 7]: 92
- Relative Production Amount of Skin Irritation Mediator when Production Amount in Drug Only Group is Set to 100: IL-8 [1, 7]: 66
- Relative Production Amount of Skin Irritation Mediator when Production Amount in Drug Only Group is Set to 100: PGE2 [1, 7]: 58

Compound: ginsenoside
- Effect on skin irritation mediator production by PMA (in words) ([2]; summary of Table 1): exhibited effects of suppressing the skin irritation mediator production by PMA
- Relative Production Amount of Skin Irritation Mediator when Production Amount in PMA Only Group is Set to 100: IL-1α [2, 6]: 77
- Relative Production Amount of Skin Irritation Mediator when Production Amount in PMA Only Group is Set to 100: IL-6 [2, 6]: 70
- Relative Production Amount of Skin Irritation Mediator when Production Amount in PMA Only Group is Set to 100: IL-8 [2, 6]: 90
- Relative Production Amount of Skin Irritation Mediator when Production Amount in PMA Only Group is Set to 100: PGE2 [2, 6]: 121
